The record followed here is patent US11571484B2, “Compositions that target tumor-associated macrophages and methods of use therefor” (Sanford Burnham Prebys Medical Discovery Institute, priority 2017, dated 2023).

The test system of one test is peritoneal macrophages. Briefly: In vivo phage display on peritoneal cells of 4T1 tumor-bearing versus normal mice. Also noted: species or system mouse. The following applies: phage-displayed peptide. Here is the method:
A, Naive phage library was injected intraperitoneally in 4T1 tumor-bearing mice and age-matched normal mice, and allowed to circulate for two h. Peritoneal cells were collected, the accompanying phages were rescued and the peptide-encoding segment of phage DNA was sequenced. […] Peritoneal cells were extracted from the mice, seeded on coverslips, allowed to attach for 2 h, fixed, permeabilized, and stained for CD206. CD206+ cells were counted from 6 different confocal images, 2 from each mouse. C, Highly repeated sequences obtained from the first round of the biopanning experiment shown schematically in panel A. D, Frequency of phage clones encoding UNO or a randomly picked peptide (CIGVSSDC) divided by the total number of repeated sequences) in the 4T1 tumor-bearing and normal mice.
Ten days later, the 4T1 mouse and a Balb/c female mouse of the matched age, were injected with 500 μL of a 7×10^10 pfu/mL of purified CX7C long-circulating library that bears a mutation on the p17 protein of tail fiber^45. After 2 h the mice were anesthetized and peritoneal cells were collected, washed by centrifugation, and lysed by hand-held homogenizer in 2 mL of LB+NP40 1%. The phage was amplified in E. coli strain BLT5403 for high throughput sequencing of peptide encoding segment of the phage genomic DNA using Ion Torrent semiconductor sequencing system.
In vivo phage display was carried out on orthotopic breast cancer bearing mice as outlined in FIG. 1A. Compared to peritoneal cells of healthy mice, […] macrophages were ˜5-fold overrepresented in Balb/c mice bearing metastatic syngeneic 4T1 breast tumors (FIG. 1B). We hypothesized that a peptide that binds to peritoneal macrophages in tumor-bearing mice may also target M2-like TAMs. Mice with 4T1 tumors were injected intraperitoneally (i.p.) with a phage library expressing 9-amino acid cyclic CX7C peptides. After 2 h, peritoneal cells were collected, bound phages were rescued by amplification, and the resulting phage pool was subjected to high-throughput sequencing of the peptide-encoding segment of the phage genome. […]

Another test deals with RAW 267.4 cells. The test is described as follows: Phage biopanning on cultured CD206- RAW 267.4 macrophages. The class given is cell-based, mouse. The note with it: phage-displayed peptide, 4 °C overnight. As for the experimental part: A, Cultured RAW 267.4 mouse macrophages were fixed with PFA and stained with rat anti-CD206 (red) and counterstained with DAPI (blue). B, Phage display on RAW 267.4 cells. Cells were lifted using a cell scraper, centrifuged, brought to 4° C. and incubated with 0.5 mL of the same phage library used for the in vivo experiments (0.5 mL of 7×10^10 pfu/mL)+0.5 mL of DMEM, at 4° C. overnight. Cells were then washed four times resuspending in PBS and placing in a new tube every time, lastly the cells were suspended in LB+NP40%, lysed and phage insert were sequenced. The UNO clone is […] of the list (red). Only the top 50 hits from the screen are shown. Scale bar: 50 μm.
Mouse macrophage cell line Raw 267.4 (ATCC, VA, USA) was cultured in DMEM with FBS and antibiotics. Cells from a 25 cm^2 flask (˜3×10^6 cells) were lifted using a cell scraper, centrifuged, brought to 4. C and incubated with 0.5 mL of the same purified library used for the in vivo experiments (0.5 mL of 7×10^10 pfu/mL)+0.5 mL of DMEM, at 4-C overnight. Cells were then washed four times by re-suspending in PBS and placing them in a new tube every time, and finally suspended in LB+1% NP40, lysed and subjected to high throughput sequencing.

A further test concerns MEMs in MKN45-P tumors. The following applies: 30 nmoles i.v., 2 h. Here is the method:
(§1) Thirty nmoles of FAM-UNO or FAM-control peptide were injected intravenously into mice and allowed to circulate for 2 h. Mice were then sacrificed and tumor and tissues were analyzed by immunofluorescence using rabbit anti-FAM (green) and rat anti-CD206 (red) antibodies, and counterstained with DAPI. […] The metastases were induced by i.v. inoculation of B16F10 melanoma cells. […] Blue: DAPI. Representative fields from multiple sections (n≥3) prepared from at least 3 tumors are shown. Scale bar: 50 μm. Images shown are representative fields from multiple sections (≥3) prepared from at least 3 tumors (n≥3 mice). The graphs show mean+SEM of FAM signal quantified as described in Materials and Methods.
(§2) Tumor models were induced according to protocols approved by the Estonian Ministry of Agriculture, Committee of Animal Experimentation (permit #48). For the 4T1 breast model, 8-week old female Balb/c mice were injected in the mammary fat pad with 10^6 cells dispersed in 50 μL of PBS. For homing studies, mice were used 10 days later, when the tumor had reached ˜150 mm^3. For MCF-7 breast model, 8-week old female nude mice were implanted with an estrogen pellet, and 1 week later inoculated with 5×10^6 MCF-7 cells in 100 μL of cold Matrigel (BD Biosciences, CA, USA). Mice were used for homing studies three weeks later (tumor volume˜150 mm^3). For the metastatic gastric carcinoma, 10^6 MKN45-P cells in PBS were injected intraperitoneally in 8-week old female nude mice. Mice were used for homing studies two weeks later. For the metastatic melanoma model, 2×10^5 B16F10 cells were injected intravenously in 100 μL of PBS in C57 BL6 mice. The mice were used for homing studies 10 days after. […]
(§3) For free peptide homing studies, mice were injected intravenously with 30 nmoles of FAM-peptides in 100 μL of PBS. […] FAM was detected using Rabbit anti-FITC (Invitrogen, CA, USA. Catalog # A-889) at a dilution of 1/100 and using Alexa Fluor-546 anti-rabbit antibody (Invitrogen, Ca, USA. Catalog # A-11035) at a dilution of 1/200.

Test [1] concerns MEMs in B16F10 melanoma lung metastases. The following applies: 30 nmoles i.v., 2 h. As for the experimental part:
as §1, §2, §3

A further test deals with MEMs in WT-GBM tumors. Briefly: Free peptide homing and immunofluorescence in the orthotopic WT-GBM glioblastoma model. The note with it: 30 nmoles i.v., 2 h. Here is the method: as §1
(§4) Tumor models were induced according to protocols approved by the Estonian Ministry of Agriculture, Committee of Animal Experimentation (permit #48). For the 4T1 breast model, 8-week old female Balb/c mice were injected in the mammary fat pad with 10^6 cells dispersed in 50 μL of PBS. For homing studies, mice were used 10 days later, when the tumor had reached ˜150 mm^3. For MCF-7 breast model, 8-week old female nude mice were implanted with an estrogen pellet, and 1 week later inoculated with 5×10^6 MCF-7 cells in 100 μL of cold Matrigel (BD Biosciences, CA, USA). Mice were used for homing studies three weeks later (tumor volume˜150 mm^3). For the metastatic gastric carcinoma, 10^6 MKN45-P cells in PBS were injected intraperitoneally in 8-week old female nude mice. Mice were used for homing studies two weeks later. For the metastatic melanoma model, 2×10^5 B16F10 cells were injected intravenously in 100 μL of PBS in C57 BL6 mice. The mice were used for homing studies 10 days after. For the angiogenic glioblastoma model, WT-GBM 24, 7×10^5 cells were stereotactically injected in the right striatum of Fox/Nu mice 2 mm lateral and posterior of bregma of 2.5 mm deep. The mice were used for homing studies 6-7 days after the injection.
For free peptide homing studies, mice were injected intravenously with 30 nmoles of FAM-peptides in 100 μL of PBS. For nanoparticle homing studies-FAM-UNO—NP-PTX-, mice were injected intravenously in mice bearing MCF-7 breast tumors with 1 mg of Polymer in 100 μL pf PBS and allowed to circulate for 6 h. For tissue collection, the mice were anesthetized and the tissues collected and immediately placed in 4% cold PFA and left overnight at 4-C. Tissues were washed with PBS for 2 h at room temperature and cryoprotected with sucrose 15% at 4-C overnight and then in sucrose 30% at 4·C overnight. […] FAM was detected using Rabbit anti-FITC (Invitrogen, CA, USA. Catalog # A-889) at a dilution of 1/100 and using Alexa Fluor-546 anti-rabbit antibody (Invitrogen, Ca, USA. Catalog # A-11035) at a dilution of 1/200.

Test [2] deals with MRC1/CD206-expressing tumor-associated macrophages (MEMs) in 4T1 tumors. The test is described as follows: Free peptide homing and immunofluorescence in the orthotopic 4T1 breast tumor model. The note with it: 30 nmoles i.v., 2 h circulation. As for the experimental part:
(SEQ ID NO: 5) control peptide were injected intravenously into 4T1 tumor-bearing mice and allowed to circulate for 2 h. Mice were then sacrificed and tumor and tissues were analyzed by immunofluorescence using rabbit anti-FAM (green) and rat anti-CD206 or rat anti-TIE2 (red) antibodies, and counterstained with DAPI. All images were taken under the same imaging conditions. FAM-UNO accumulated in macrophages within tumors and lymph nodes positive for CD206 staining (A, B, C) and TIE2 (D, and H: Blow up of D). […] To ascertain that anti-CD206 is capable of detecting CD206 in the liver, an image was acquired with longer exposure time from an uninjected animal (FIG. 25). […] Green: FAM-peptide; Red: CD206 or TIE2, Blue: DAPI. Representative fields from multiple sections prepared from at least 3 tumors (n≥3 mice) are shown.
as §4
For free peptide homing studies, mice were injected intravenously with 30 nmoles of FAM-peptides in 100 μL of PBS. For nanoparticle homing studies-FAM-UNO—NP-PTX-, mice were injected intravenously in mice bearing MCF-7 breast tumors with 1 mg of Polymer in 100 μL pf PBS and allowed to circulate for 6 h. For tissue collection, the mice were anesthetized and the tissues collected and immediately placed in 4% cold PFA and left overnight at 4-C. Tissues were washed with PBS for 2 h at room temperature and cryoprotected with sucrose 15% at 4-C overnight and then in sucrose 30% at 4·C overnight. The tumor and the control organs were placed together in the same block with OCT compound (Leica Biosystems, Wetzlar, Germany), snap-frozen in isopentane, and sectioned at 10 μm. FAM was detected using Rabbit anti-FITC (Invitrogen, CA, USA. Catalog # A-889) at a dilution of 1/100 and using Alexa Fluor-546 anti-rabbit antibody (Invitrogen, Ca, USA. Catalog # A-11035) at a dilution of 1/200. CD31 was detected using rat anti-mouse CD31 (BD Biosciences, CA, USA. Catalog #: 553370), TIE2 was detected using rat anti-mouse TIE2 (Biolegend, CA, USA. Catalog #124001), CD209 was detected using rat anti-mouse CD209 (Biolegend, CA, USA. Catalog #147802), HLA ABC was detected using rat anti Human HLA ABC (Bio-Rad, CA, USA. Product code MCA485G), and CD206 was detected using ratanti-mouse CD206 (Bio-Rad, CA, USA. Product code MCA2235GA); using 1/100 primary antibody dilution and Alexa Fluor-647 anti-Rat antibody (Invitrogen, CA, USA. Catalog #21247) at 1/200 dilution. To quantify FAM signal from confocal images, the green channel of images taken by using 20× magnification objective was opened with ImageJ, converted to 8-bit grayscale and the integrated pixel intensity was measured. Different regions of tumors from three different mice were used.

For the substance “CSPGAKVRC [peptide codenamed UNO, identified by in vivo phage display]”, in the test with peritoneal macrophages (library injected i.p., 2 h), the “overrepresentation of phage in peritoneal cells from 4T1 tumor-bearing mice versus healthy mice” value was around 10 fold. Moreover, in the test with peritoneal macrophages (peritoneal cells of 4T1 tumor mice), the “representation among sequenced phage clones” value was “most highly represented non-truncated peptide”. For the same substance, in the test on RAW 267.4 cells, the “position of the phage clone in the list of hits” value is listed as 2140.
In the case of “FAM-CRKQGEAKC: FAM-labeled control peptide CRKQGEAKC (SEQ ID NO: 5) of the same charge and molecular weight as FAM-UNO (not fully specified; FAM label) [reference compound]”, the “accumulation in MEMs / CD206+ cells” value with MEMs in MKN45-P tumors was “no accumulation was detected in CD206^+ cells”. For the same substance, the “homing to melanoma lung metastases” value in test [1] is “Little to no”. For the same substance, the accumulation in tumor entry in the test on MEMs in WT-GBM tumors was “did not accumulate in the tumor”; with MEMs in WT-GBM tumors (listed as FAM-Control peptide), “Little to no”. In addition, in test [2], the “accumulation in MEMs / tumor homing” value is on record as “no tumor homing”.
